Data taken from US20100113391A1, “BICYCLIC HETEROCYCLIC COMPOUND” (Astellas Pharma Inc., priority 2007, published 2010).
Values belong to the molecule of their own block, whether it stands above or below them.

What was measured:
[1] = test system: human platelets (platelet rich plasma), ADP-induced aggregation; experiment: Human platelet aggregation inhibitory activity measurement test (ADP-induced, PRP); type: cell-based; details: compound 10 μM (final concentration); ADP-induced aggregation of human PRP; area under the platelet aggregation curve
Method: Test Method (1) Human Platelet Aggregation Inhibitory Activity Measurement Test
Using a syringe in which 1/10 vol of a 3.8% sodium citrate solution is contained, blood was collected from a healthy volunteer (adult). The blood was subjected to a centrifugation at 160×g for 10 minutes and a supernatant platelet rich plasma (PRP) was separated. The remaining blood of which the PRP has been collected was subjected to a centrifugation at 1,800×g for 10 minutes and a platelet poor plasma (PPP) was separated. The number of the platelets in the PRP was measured using an automatic blood cell counter (MEK-6258, Nihon Kohden Corporation). After that, the PPP was added to the PRP to adjust the number of the platelets to 3×10^8 /ml, thereby using the platelets for the following tests. As an ADP, which is a platelet aggregating agent, a product manufactured by MC Medical Inc. was used. The platelet aggregation was measured using a platelet aggregometer (MCM Hematracer 212; MC medical Inc.). That is, 80 μl of the PRP having the number of the platelets of 3×10^8 /ml and 10 μl of a test compound solution or solvent (10% DMSO or 10% DMSO-9% hydroxypropyl-β-cyclodextrin-4.5% d-mannitol) were incubated at 37° C. for 1 minute and then 10 μl of ADP (50 μM) was added to the mixture to cause platelet aggregation, thereby recording a variation in transmitted light for 5 minutes. An inhibition rate was calculated using an area under the platelet aggregation curve as an index. In addition, Ex represents a number of the compounds of Examples.

Human P2Y12 = biological target: T1, Human P2Y12 (Homo sapiens, UniProt Q9H244); experiment: Substitution test for the binding between human P2Y12 and 2-methylthio-ADP (2-MeS-ADP); details: compound 30 nM (final concentration); [33P]-2-MeS-ADP binding to P2Y12 protein-expressing C6-15 cell membrane fraction
T1 construct: expressed in transfected cells
Method: Test Method (2) Substitution Test for the binding between Human P2Y12 and 2-methylthio-ADP(2-MeS-ADP)
In a 10 cm petri dish, C6-15 cells were spread to be 1×10^6 of cells by using a DMEM culture medium and cultured for 1 day. After that, genes of plasmids such as 8 μg of pEF-BOS-dhfr-human P2Y12 and 0.8 μg of pEF-BOS-neo (Nucleic Acid Res., 18, 5322, 1990) were introduced to the cells using a transfection reagent (LipofectAMINE 2000; manufactured by GIBCO BRL Inc.).
After 24 hours since the above-mentioned gene introduction operation had been completed, the cells to which the genes were introduced were recovered and suspended in a DMEM culture medium containing 0.6 mg/ml of G418 (manufactured by GIBCO BRL Inc.). After that, the cells were serially diluted and spread on a 10 cm petri dish. Colonies appeared after 2 weeks later were individually collected and used in the following tests as P2Y12 protein-expressing C6-15 cells (WO 02/36631, Mol. Pharmacol., 60, 432, 2001).
The P2Y12 protein-expressing C6-15 cells were cultured and then the cells were recovered. The cells were washed with PBS, suspended in 20 mM Tris-HCl (pH 7.4) containing 5 mmol/l EDTA and Complete™ (manufactured by Boehringer Mannheim) which is a protease inhibitor cocktail set, and homogenized by Polytron. The cells were subjected to an ultracentrifugation and a precipitate is suspended in 50 mM Tris-HCl (pH 7.4) containing 1 mM of EDTA, 100 mM NaCl, and Complete™ to perform membrane fraction.
To 100 μl of the P2Y12 protein-expressing C6-15 cell membrane fraction (100 μg/ml) produced as mentioned above, 1.5 μl of a test compound solution and 50 μl of 0.75 nM [^33P]-2-MeS-ADP (2100 Ci/mmol, manufactured by PerkinElmer Inc.) were added. The mixture was incubated in 50 mM Tris-HCl (pH 7.4) containing 100 mM NaCl and 50 mM MgCl2 at room temperature for 1 hour, and then recovered by cell harvest on a glass filter. Microscintillators were added to the glass filter and the radioactive activity was measured by a liquid scintillation counter. In addition, simultaneously, the radioactivity in the case where only a solvent is added to the above-mentioned test and in the case where 1.5 μl of 250 μM ADP is added thereto were measured respectively as the total binding amount and the nonspecific binding amount. The total binding amount and the nonspecific binding amount were set respectively as the inhibition rate of 0% and the inhibition rate of 100% to calculate the inhibition rate (%) of the test compound.

[2] = test system: rat platelets (PRP), ADP-induced aggregation; experiment: Rat platelet aggregation inhibition test (ex vivo after oral administration); type: in vivo; details: male SD rat, 30 mg/kg orally, blood collected 2 hours after administration; ADP-induced aggregation of PRP
Method: Test Method (3) Rat Platelet Aggregation Inhibition Test and Measurement of Test Compound Concentration in Plasma
An aqueous sodium hydroxide solution and the same amount of a 1% aqueous methyl cellulose solution were added to the compound of the invention to prepare a 0.5% aqueous methyl cellulose solution or a suspension solution. This preparation solution was orally administered to a male SD rat (5 to 7 weeks old) which has been fasted over 12 hours using a sonde at a dose of 30 mg/kg. After 2 hours later since the administration of the compound, using a syringe in which 1/10 vol of a 3.8% sodium citrate solution is contained, a blood was collected. In the same manner as in Test Method (1), a PPP and a PRP having the number of the platelets as 3×10^8 /ml were prepared. 90 μl of the PRP having the number of the platelets of 3×10^8 /ml was incubated at 37° C. for 1 minute and then 10 μl of ADP (50 μM) was added thereto to cause platelet aggregation, thereby recording a variation in transmitted light for 5 minutes. An inhibition rate was calculated using an area under the platelet aggregation curve as an index.

T1 sequence (Q9H244 whole entry): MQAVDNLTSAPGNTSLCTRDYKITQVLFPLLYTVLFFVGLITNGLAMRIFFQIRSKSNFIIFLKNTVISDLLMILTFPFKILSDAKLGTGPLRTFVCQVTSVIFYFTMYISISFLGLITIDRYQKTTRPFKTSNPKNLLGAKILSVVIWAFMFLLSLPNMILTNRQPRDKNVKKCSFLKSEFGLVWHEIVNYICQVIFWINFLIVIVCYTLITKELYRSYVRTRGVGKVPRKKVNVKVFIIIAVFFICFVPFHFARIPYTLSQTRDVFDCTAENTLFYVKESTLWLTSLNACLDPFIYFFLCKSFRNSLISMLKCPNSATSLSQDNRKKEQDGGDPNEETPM

SMILES: O=C(O)CCCNn1c(=O)c2cc(F)c(NC3CCCCC3)cc2n(C2CCCC2)c1=O [Example 155]
inhibition at 10 µM [1]: 93% | inhibition at 0.03 µM (Human P2Y12): 72%

SMILES: O=C(O)COn1c(=O)c2cc(F)c(NC3CCCCC3)cc2n(C2CCCC2)c1=O [Example 24, {[7-(cyclohexylamino)-1-cyclopentyl-6-fluoro-2,4-dioxo-1,4-dihydroquinazolin-3(2H)-yl]oxy}acetic acid]
inhibition at 10 µM [1]: 89% | inhibition at 0.03 µM (Human P2Y12): 60%

SMILES: CC(CCn1c(=O)c2cc(F)c(NC3CCCCC3)cc2n(C2CCCC2)c1=O)C(=O)O (centres unmarked) [Example 114]
inhibition at 10 µM [1]: 91% | % Inhibition [2]: 90% | inhibition at 0.03 µM (Human P2Y12): 71%

SMILES: O=C(O)/C=C/Cn1c(=O)c2cc(F)c(NC3CCCCC3)cc2n(C2CCCC2)c1=O [Example 65]
inhibition at 10 µM [1]: 86% | % Inhibition [2]: 56%

SMILES: CC(C)n1c(=O)n(CCCC(=O)O)c(=O)c2cc(F)c(NC3CCCCC3)cc21 [Example 77]
inhibition at 10 µM [1]: 88%

inhibition at 0.03 µM (Human P2Y12): 67%
SMILES: O=C(O)COc1cccc(Cn2c(=O)c3cc(F)c(NC4CCCCC4)cc3n(C3CCCC3)c2=O)c1 [Example 157]

SMILES: O=C(O)Cn1c(=O)c2cc(F)c(NCC3CC3)cc2n(C2CCCC2)c1=O [Example 69]
inhibition at 10 µM [1]: 50%

SMILES: O=C(O)CNC(=O)Cn1c(=O)c2cc(F)c(NC3CCCCC3)cc2n(C2CCCC2)c1=O [Example 42]
inhibition at 10 µM [1]: 75% | inhibition at 0.03 µM (Human P2Y12): 56%
